Assay results published in patent publication US20230113516A1, “5-AMINO-2,3-DIHYDRO-1,4-PHTHAL[…] TREATMENT OF ACUTE LUNG INJURY” (Metriopharm AG, priority 2020, published 2023).
Read-outs that look alike come from different tables or passages of the source.

Key:
Vero B4 cells = conditions: antivirally effective concentrations; observation period of 3 days; tested 0.25-4 mM
Description: Herein viable cells with an intact mitochondrial succinate-tetrazolium dehydrogenase system effect an enzymatic conversion of the feebly red tetrazolium salt WST-1 (4-[3-(4-iodophenyl)-2-(4-nitrophenyl)-2H-5-tetrazolio]-1,3 benzene disulfonate) into dark red formazan. This color change can be measured photometrically in a spectrophotometer. Thus, the WST assay is a very sensitive method for measuring the toxicity of substances on the cell metabolism. The value for untreated cells was set to 100%.
The value for untreated cells was set to 100%. 1 μM staurosporine (an indolocarbazole compound from Streptomyces staurosporeus, an apoptosis inducer) was used as positive control.

PCI model of sepsis = conditions: for survival rate after 10 days: therapeutic mode, n=6
Protocol: In the PCI (peritoneal contamination and infection) model of sepsis a human fecal suspension was injected intraperitoneally to mice (3 μl/g body weight). To all groups the antibiotic meropenem (25 mg/kg body weight) was administered 6 hours after PCI induction. At this time point all mice received also a volume loading with a 5% glucose solution. This treatment is repeated on the two consecutive days after PCI induction, at intervals of 24 hours. • Group I: control (not infected) • Group II: PCI (infected, without treatment) • Group III: PCI+2 mg/kg body weight 5-amino-2,3-dihydro-1,4-phthalazinedione sodium salt Form I • Group IV: PCI+5 mg/kg body weight 5-amino-2,3-dihydro-1,4-phthalazinedione sodium salt Form I
Starting at 8 hours after PCI induction the mice of the treatment groups were treated for two consecutive days every 8 hours with an intraperitoneal injection of 2 mg/kg body weight, respectively 5 mg/kg body weight 5-amino-2,3-dihydro-1,4-phthalazinedione sodium salt Form I. Thereupon the mice were treated for further eight days with an intraperitoneal injection of 2 mg/kg body weight, respectively 5 mg/kg body weight 5-amino-2,3-dihydro-1,4-phthalazinedione sodium salt Form I once daily. (n=6)
Herein the mice were treated with 5 mg/kg body weight 5-amino-2,3-dihydro-1,4-phthalazinedione sodium salt Form I only, but only twice, 3 hours before PCI induction and 6 hours after (n=8).
The Clinical Severity Score (CSS) was assessed daily for the mice of the prophylactic treatment group. The CSS was assessed according to Gonnert et al. (2011) J Surg Res 170: e123-134.

[1] = tested on: 3-nitrotyrosine formation in the lung parenchyma; conditions: for 3-nitrotyrosine stained surface area, mean ± SEM: cigarette smoke alone 3.07, room air 0.24
Protocol: C57BL/6J mice (n=25, 5 per group; male/female, 3-6 months, 20-30 g; Charles River GmbH, Sulzfeld, Germany) were anesthetized with a ketamine (100 mg/kg body weight) and xylazine (20 mg/kg body weight) intraperitoneal injection (Ceva Tiergesundheit GmbH, Dusseldorf, Germany) containing heparin (50 I.E. heparin/g body weight; Ratiopharm GmbH, Ulm, Germany). The lungs and the heart were removed from the chest cavity and placed on the ILU system (see FIGS. 1A and 1B). Lungs were ventilated in an isolated chamber using normoxic gas (21% O2, 5% CO2, 74% N2; 150 breaths per minute at the PEEP (positive end-expiratory pressure) of 3 cm H2O) and perfused with a modified Krebs-Henseleit buffer (120.0 mM NaCl, 4.3 mM KCl, 1.1 mM KH2PO4, 2.4 mM CaCl2, 1.3 mM MgCl2, 13.14 mM glucose, 0.25 mM hydroxyethyl starch 200000/0.5, 25.0 mM NaHCO3 adjusted to a constant pH range of […] L-arginine; Serag-Wissner GmbH & Co. KG, Naila, Germany) at a temperature of 37° C. Lung weight, right and left ventricle pressure, as well as ventilatory pressure were monitored and recorded during the whole experimental procedure. After 5-10 minutes, when the lung was properly flushed and all the parameters were stable, 5-amino-2,3-dihydro-1,4-phthalazinedione sodium salt was applied by adding 150 μl of a stock solution to 15 ml of the circulating perfusion buffer. The substance was applied 10 minutes prior to the first cigarette smoke application. Cigarette smoke was applied via trachea while lung is perfused with the buffer containing 5-amino-2,3-dihydro-1,4-phthalazinedione sodium salt. Cigarette smoke was prepared freshly before each application, by burning one cigarette (research cigarettes 3R4F, University of Kentucky, USA) in one minute using normoxic gas at the flow of 1 l/min and collected in a 1 l glass bottle containing 5 g silica gel for removing the moist from the cigarette smoke. 50 ml of the cigarette smoke were taken via a syringe and applied to the lung via trachea (FIG. 4A) in deep breaths (periodic inflation for 3-4 s) over a period of 5 min. The application was done manually while carefully monitoring the inspiratory pressure to avoid damage of the lung. The cigarette smoke application was repeated three times with a 1 hour break in-between.
5-amino-2,3-dihydro-1,4-phthalazinedione sodium salt Form I was dissolved in water for injection (vehicle) at the required concentrations described above. Stock solutions were prepared in water for injection. Further 1:100 dilutions were made with modified Krebs-Henseleit buffer (see above). Stock solutions were stored at −70° C. in appropriate aliquots. The required amount of stock solution was thawed, and the corresponding working solution was prepared for immediate use.
One hour after the third cigarette smoke application lungs were removed from the system and fixed by inflating with formalin solution (via trachea) at the pressure of 12-15 cm H2O for two hours at room temperature. Afterwards the fixed lungs were kept in PBS (phosphate buffer saline, see below) at +4° C. until further dehydration and paraffin embedding. Paraffin blocks were cut 3 μm thick, dried overnight at 37° C. and stained for 3-nitrotyrosine (3-NT).
The immunohistochemical staining of 3-nitrotyrosine was carried out according to the following protocol:
Stained histological samples were blindly analysed by light microscope. 3-nitrotyrosine levels in the lung parenchyma were quantified as a percentage of stained surface area. Quantification was performed under 200× magnification in 5-10 randomly selected fields with exclusion of large bronchi and vessels. One-Way ANOVA statistical test with Bonferroni correction was performed for comparison between groups. Differences with p<0.05 were considered statistically significant.

[2] = tested on: murine peritoneal macrophages
Description: Female C57Bl/6 mice (6-8 weeks old) were purchased from Envigo (San Petro al Natisone, Udine, Italy) and housed under standard laboratory conditions (specific-pathogen free). Food and water were applied ad libitum. Animal handling and the study protocol were in accordance with international guidelines.
Four days after i.p. injection of 3% thioglycolate medium (w/v in distilled water; St Louis, Mo. USA), murine peritoneal macrophages (PM) were isolated according to the protocol of Zhang et al. (Curr. Protoc. Immunol. 2008, Chapter 14, Unit 14.1).
Briefly, cells were collected by injecting 10 ml of complete medium (DMEM/F12 Medium containing 10% fetal calf serum) into the peritoneal cavity using a 30 cc syringe attached to a 19-G needle, followed by slowly withdrawing the lavage fluid. Cells were washed twice in PBS (phosphate buffered saline) and counted.
One hour prior to LPS (lipopolysaccharide) stimulation (0.1 μg/ml; Escherichia coli […], St Louis, Mo. USA), cells (0.5×10^6 cells/well in 24-well plates with 1 ml total volume of medium) were pre-treated with scalar concentrations of 5-amino-2,3-dihydro-1,4-phthalazinedione sodium salt (ranging from 1 mM to 0.025 mM). Two independent experiments (each using cells pooled from three mice) were performed and secreted cytokine levels were determined 24, 48 and 72 h after LPS stimulation using ELISA technique.

[3] = 1 mM, pre-treatment 1 h prior to LPS (0.1 μg/ml), C57Bl/6 PMs

Nc1cccc2c(=O)[nH][nH]c(=O)c12.[Na] [5-amino-2,3-dihydro-1,4-phthalazinedione sodium salt]
toxic effect (cell viability, WST assay) (Vero B4 cells): does not display any significant toxic effect | survival rate (PCI model of sepsis; prophylactic mode, 5 mg/kg body weight, 3 hours before and 6 hours after PCI induction, Group IV, n=8): 100% | recovery (Clinical Severity Score) versus untreated group (PCI model of sepsis; prophylactic mode, 5 mg/kg body weight, in particular after Day 4): recovered clearly more quickly | Clinical Severity Score (CSS) versus untreated group (PCI model of sepsis; prophylactic mode, 5 mg/kg body weight, surviving animals): less strongly diseased | survival rate after 10 days (PCI model of sepsis; 2 mg/kg body weight i.p., Group III): 50% | survival rate after 10 days (PCI model of sepsis; 5 mg/kg body weight i.p., Group IV): 83% | SARS-CoV-2 nucleocapsid protein (Western Blot) (SARS-CoV-2): clear reduction | generation of SARS-CoV-2 proteins (densitometric evaluation) (SARS-CoV-2): inhibited dose-dependently | cigarette smoke induced 3-nitrotyrosine formation (in words) ([1]; 0.5 mM in perfusion buffer): moderate effect | cigarette smoke induced 3-nitrotyrosine formation (in words) ([1]; 1 mM in perfusion buffer): almost completely abolished | cigarette smoke induced 3-nitrotyrosine formation (in words) ([1]; 2 mM in perfusion buffer): almost completely abolished | 3-nitrotyrosine stained surface area, mean ± SEM ([1]; cigarette smoke + 0.5 mM in perfusion buffer (group C)): 2.24 ± 0.28 % area | 3-nitrotyrosine stained surface area, mean ± SEM ([1]; cigarette smoke + 1 mM in perfusion buffer (group D)): 0.72 ± 0.26 % area | 3-nitrotyrosine stained surface area, mean ± SEM ([1]; cigarette smoke + 2 mM in perfusion buffer (group E)): 0.37 ± 0.13 % area | reduction of IL-1-beta level [2, 3]: ~50% | reduction of IL-6 level [2, 3]: ~80% | reduction of IL-12 level [2, 3]: ~60% | reduction of TNF-alpha level [2, 3]: about 40% | cytokine reduction in PMs of a second mouse strain ([2]; Balb/c, six concentrations from 1 mM to 0.25 mM, data not shown): clear dose-dependency | cytokine secretion of unstimulated murine PMs ([2]; no LPS, data not shown): did not affect
